Blank lines part the entries; values can stand above or below the compound they belong to.
Test system: 876862-298-R-J1-PDC complex spheroids, viability % test/control
Experiment: Anticancer human tumor 876862-298-R-J1-PDC patient-derived endometrial carcinoma cell line growth inhibition [CLK]
Details: for IC50: curve of first compound; for viability, T/C: stronger effect = lower value
How it was run: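 Multi-cell-type spheroids combined patient-derived tumor cells with HUVEC endothelial cells and human mesenchymal stem cells. Paired agents were dosed in half-log steps down from about clinical Cmax, or from 10 microM where Cmax was unknown.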

[1] = second compound 0.0316 µM, first compound 0.0316 µM
[2] = second compound 0.0316 µM, first compound 0.1 µM
[3] = second compound 0.0316 µM, first compound 0.316 µM
[4] = second compound 0.0316 µM, first compound 1 µM
[5] = second compound 0.0316 µM, first compound 3.16 µM
[6] = second compound 0.0316 µM, first compound 10 µM
[7] = second compound 0.1 µM, first compound 0.0316 µM
[8] = second compound 0.1 µM, first compound 0.1 µM
[9] = second compound 0.1 µM, first compound 0.316 µM
[10] = second compound 0.1 µM, first compound 1 µM
[11] = second compound 0.1 µM, first compound 3.16 µM
[12] = second compound 0.1 µM, first compound 10 µM
[13] = second compound 0.316 µM, first compound 0.0316 µM
[14] = second compound 0.316 µM, first compound 0.1 µM
[15] = second compound 0.316 µM, first compound 0.316 µM
[16] = second compound 0.316 µM, first compound 1 µM
[17] = second compound 0.316 µM, first compound 3.16 µM
[18] = second compound 0.316 µM, first compound 10 µM
[19] = second compound 1 µM, first compound 0.0316 µM
[20] = second compound 1 µM, first compound 0.1 µM
[21] = second compound 1 µM, first compound 0.316 µM
[22] = second compound 1 µM, first compound 1 µM
[23] = second compound 1 µM, first compound 3.16 µM
[24] = second compound 1 µM, first compound 10 µM
[25] = second compound 3.16 µM, first compound 0.0316 µM
[26] = second compound 3.16 µM, first compound 0.1 µM
[27] = second compound 3.16 µM, first compound 0.316 µM
[28] = second compound 3.16 µM, first compound 1 µM
[29] = second compound 3.16 µM, first compound 3.16 µM
[30] = second compound 3.16 µM, first compound 10 µM
[31] = second compound 10 µM, first compound 0.0316 µM
[32] = second compound 10 µM, first compound 0.1 µM
[33] = second compound 10 µM, first compound 0.316 µM
[34] = second compound 10 µM, first compound 1 µM
[35] = second compound 10 µM, first compound 3.16 µM
[36] = second compound 10 µM, first compound 10 µM
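Note: spheroids exposed to drugs for 7 days before readout.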
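Throughout, for viability, T/C: 100% = DMSO vehicle control wells.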

SMILES: CC(CO)NC(=O)c1cc(-c2ccc(Cl)cc2)nn(-c2cnn(C)c2)c1=O (stereo not given) + CNC(=O)c1ccc(Nc2nc(OC3CCCC3)c3c(-c4ccc5nc(C)oc5c4)c[nH]c3n2)c(OC)c1
IC50 (second compound 0.0316 µM): > 10000 nM
IC50 (second compound 0.1 µM): < 31.6 nM
IC50 (second compound 0.316 µM): < 31.6 nM
IC50 (second compound 1 µM): < 31.6 nM
IC50 (second compound 3.16 µM): < 31.6 nM
IC50 (second compound 10 µM): < 31.6 nM
viability, T/C [1]: 68.7%
viability, T/C [2]: 81%
viability, T/C [3]: 66.9%
viability, T/C [4]: 67.7%
viability, T/C [5]: 62.9%
viability, T/C [6]: 55.7%
viability, T/C [7]: 41%
viability, T/C [8]: 53%
viability, T/C [9]: 44.9%
viability, T/C [10]: 48.5%
viability, T/C [11]: 46.1%
viability, T/C [12]: 42.7%
viability, T/C [13]: 38.7%
viability, T/C [14]: 43.8%
viability, T/C [15]: 39.7%
viability, T/C [16]: 37.9%
viability, T/C [17]: 42.7%
viability, T/C [18]: 42.1%
viability, T/C [19]: 33.8%
viability, T/C [20]: 32.6%
viability, T/C [21]: 38.9%
viability, T/C [22]: 33.3%
viability, T/C [23]: 30%
viability, T/C [24]: 31.3%
viability, T/C [25]: 24%
viability, T/C [26]: 25.1%
viability, T/C [27]: 21.7%
viability, T/C [28]: 25.5%
viability, T/C [29]: 27.2%
viability, T/C [30]: 22.4%
viability, T/C [31]: 23.9%
viability, T/C [32]: 21.2%
viability, T/C [33]: 20.5%
viability, T/C [34]: 23.8%
viability, T/C [35]: 23.1%
viability, T/C [36]: 20.9%

SMILES: CC(Nc1ccc2c(c1)OCCn1cc(N3C(=O)OCC3C(F)F)nc1-2)C(N)=O (stereo not given) + CNC(=O)c1ccc(Nc2nc(OC3CCCC3)c3c(-c4ccc5nc(C)oc5c4)c[nH]c3n2)c(OC)c1
IC50 (second compound 0.0316 µM): 316 nM
IC50 (second compound 0.1 µM): < 31.6 nM
IC50 (second compound 0.316 µM): < 31.6 nM
IC50 (second compound 1 µM): < 31.6 nM
IC50 (second compound 3.16 µM): < 31.6 nM
IC50 (second compound 10 µM): < 31.6 nM
viability, T/C [1]: 56%
viability, T/C [2]: 61.4%
viability, T/C [3]: 46.6%
viability, T/C [4]: 41%
viability, T/C [5]: 31.8%
viability, T/C [6]: 20.8%
viability, T/C [7]: 40.6%
viability, T/C [8]: 38.3%
viability, T/C [9]: 32.5%
viability, T/C [10]: 27%
viability, T/C [11]: 20.9%
viability, T/C [12]: 16%
viability, T/C [13]: 41%
viability, T/C [14]: 33.2%
viability, T/C [15]: 29.7%
viability, T/C [16]: 23.1%
viability, T/C [17]: 20%
viability, T/C [18]: 17.4%
viability, T/C [19]: 31.6%
viability, T/C [20]: 25.4%
viability, T/C [21]: 22.1%
viability, T/C [22]: 20%
viability, T/C [23]: 17.1%
viability, T/C [24]: 14%
viability, T/C [25]: 20.1%
viability, T/C [26]: 16.7%
viability, T/C [27]: 15.1%
viability, T/C [28]: 14.8%
viability, T/C [29]: 14%
viability, T/C [30]: 10.2%
viability, T/C [31]: 16.7%
viability, T/C [32]: 14.8%
viability, T/C [33]: 12.6%
viability, T/C [34]: 13%
viability, T/C [35]: 12%
viability, T/C [36]: 9.25%

Second part, led by results:

IC50 (second compound 0.0316 µM): > 10000 nM
IC50 (second compound 0.1 µM): < 31.6 nM
IC50 (second compound 0.316 µM): < 31.6 nM
IC50 (second compound 1 µM): < 31.6 nM
IC50 (second compound 3.16 µM): < 31.6 nM
IC50 (second compound 10 µM): < 31.6 nM
SMILES: C#Cc1c(F)ccc2cc(O)cc(-c3ncc4c(N5CC6CCC(C5)N6)nc(OCC56CCCN5CC(F)C6)nc4c3F)c12 (stereo not given) + CNC(=O)c1ccc(Nc2nc(OC3CCCC3)c3c(-c4ccc5nc(C)oc5c4)c[nH]c3n2)c(OC)c1
viability, T/C [1]: 65.6%
viability, T/C [2]: 88.8%
viability, T/C [3]: 71.9%
viability, T/C [4]: 75.3%
viability, T/C [5]: 76.3%
viability, T/C [6]: 71.4%
viability, T/C [7]: 46.5%
viability, T/C [8]: 52.8%
viability, T/C [9]: 42.7%
viability, T/C [10]: 46.6%
viability, T/C [11]: 49.9%
viability, T/C [12]: 38.2%
viability, T/C [13]: 38%
viability, T/C [14]: 40.4%
viability, T/C [15]: 38.9%
viability, T/C [16]: 41.7%
viability, T/C [17]: 39.6%
viability, T/C [18]: 34.4%
viability, T/C [19]: 33.5%
viability, T/C [20]: 34.9%
viability, T/C [21]: 27.7%
viability, T/C [22]: 30.5%
viability, T/C [23]: 32.9%
viability, T/C [24]: 26.2%
viability, T/C [25]: 23.6%
viability, T/C [26]: 22.1%
viability, T/C [27]: 22.8%
viability, T/C [28]: 21.7%
viability, T/C [29]: 24.9%
viability, T/C [30]: 20.2%
viability, T/C [31]: 20.1%
viability, T/C [32]: 20.4%
viability, T/C [33]: 21.4%
viability, T/C [34]: 21.6%
viability, T/C [35]: 20.3%
viability, T/C [36]: 19.4%

IC50 (second compound 0.0316 µM): 4840 nM
IC50 (second compound 0.1 µM): < 31.6 nM
IC50 (second compound 0.316 µM): < 31.6 nM
IC50 (second compound 1 µM): < 31.6 nM
IC50 (second compound 3.16 µM): < 31.6 nM
IC50 (second compound 10 µM): < 31.6 nM
SMILES: C=C(F)C(=O)N1CCN(c2nc(OCC3CCCN3C)nc3c2CCN(c2cccc4cccc(Cl)c24)C3)CC1CC#N (stereo not given) + CNC(=O)c1ccc(Nc2nc(OC3CCCC3)c3c(-c4ccc5nc(C)oc5c4)c[nH]c3n2)c(OC)c1
viability, T/C [1]: 61.2%
viability, T/C [2]: 84.6%
viability, T/C [3]: 74.5%
viability, T/C [4]: 84.6%
viability, T/C [5]: 87.3%
viability, T/C [6]: 1.29%
viability, T/C [7]: 47.9%
viability, T/C [8]: 49.9%
viability, T/C [9]: 47.5%
viability, T/C [10]: 48.3%
viability, T/C [11]: 38.8%
viability, T/C [12]: 2.57%
viability, T/C [13]: 42.1%
viability, T/C [14]: 39.7%
viability, T/C [15]: 43.1%
viability, T/C [16]: 39.1%
viability, T/C [17]: 31.5%
viability, T/C [18]: 1.59%
viability, T/C [19]: 33.1%
viability, T/C [20]: 33.1%
viability, T/C [21]: 32.6%
viability, T/C [22]: 27.1%
viability, T/C [23]: 27.6%
viability, T/C [24]: 0.79%
viability, T/C [25]: 22.3%
viability, T/C [26]: 24.6%
viability, T/C [27]: 22.1%
viability, T/C [28]: 21.8%
viability, T/C [29]: 21.8%
viability, T/C [30]: 0.16%
viability, T/C [31]: 23.3%
viability, T/C [32]: 22.4%
viability, T/C [33]: 19.5%
viability, T/C [34]: 21.6%
viability, T/C [35]: 18.6%
viability, T/C [36]: 0.21%

IC50 (second compound 0.0316 µM): 22.8 nM
IC50 (second compound 0.1 µM): < 3.16 nM
IC50 (second compound 0.316 µM): < 3.16 nM
IC50 (second compound 1 µM): < 3.16 nM
IC50 (second compound 3.16 µM): < 3.16 nM
IC50 (second compound 10 µM): < 3.16 nM
SMILES: COc1c(OCCCN2CCOCC2)ccc2c3n(c(=NC(=O)c4cnc(N)nc4)nc12)CCN3 + CNC(=O)c1ccc(Nc2nc(OC3CCCC3)c3c(-c4ccc5nc(C)oc5c4)c[nH]c3n2)c(OC)c1
viability, T/C (second compound 0.0316 µM, first compound 0.00316 µM): 63.1%
viability, T/C (second compound 0.0316 µM, first compound 0.01 µM): 67.3%
viability, T/C [1]: 43.5%
viability, T/C [2]: 22.6%
viability, T/C [3]: 15.8%
viability, T/C [4]: 18%
viability, T/C (second compound 0.1 µM, first compound 0.00316 µM): 45.5%
viability, T/C (second compound 0.1 µM, first compound 0.01 µM): 35.1%
viability, T/C [7]: 25.3%
viability, T/C [8]: 16.6%
viability, T/C [9]: 16.6%
viability, T/C [10]: 18.4%
viability, T/C (second compound 0.316 µM, first compound 0.00316 µM): 37.4%
viability, T/C (second compound 0.316 µM, first compound 0.01 µM): 32.6%
viability, T/C [13]: 22.6%
viability, T/C [14]: 18.1%
viability, T/C [15]: 13.4%
viability, T/C [16]: 14.9%
viability, T/C (second compound 1 µM, first compound 0.00316 µM): 29.2%
viability, T/C (second compound 1 µM, first compound 0.01 µM): 22.1%
viability, T/C [19]: 18.4%
viability, T/C [20]: 13.6%
viability, T/C [21]: 12%
viability, T/C [22]: 12.6%
viability, T/C (second compound 3.16 µM, first compound 0.00316 µM): 22.1%
viability, T/C (second compound 3.16 µM, first compound 0.01 µM): 17%
viability, T/C [25]: 12.5%
viability, T/C [26]: 9.46%
viability, T/C [27]: 9.04%
viability, T/C [28]: 7.24%
viability, T/C (second compound 10 µM, first compound 0.00316 µM): 17.3%
viability, T/C (second compound 10 µM, first compound 0.01 µM): 16.9%
viability, T/C [31]: 13.3%
viability, T/C [32]: 9.74%
viability, T/C [33]: 6.96%
viability, T/C [34]: 6.64%

Reference: PubChem BioAssay AID2060607 (Molecular Pharmacology Branch, DTP, NCI, 2025)
